Laboratory results from patent US9796716B2, “Selective inhibitors of Tec and Src protein kinase families” (Pharmascience, Inc., priority 2012, dated 2017).

Columns and labels:
[1] = test system: Splenocytes (B cell proliferation stimulated with anti-IgM F(ab′)2); assay: Splenic Cell Proliferation Assay; format: cell-based; settings: Mus musculus, Splenocyte, 72 h, CD1 mouse splenocytes, 2.5 ug/ml anti-IgM F(ab′)2 for 72 h, Cell Titer-Glo; read-out: EC50 (nM), Inhibition of splenic cell proliferation
Experimental: Splenic Cell Proliferation Assay
Splenocytes were obtained from 6 week old male CD1 mice (Charles River Laboratories Inc.). Mouse spleens were manually disrupted in PBS and filtered using a 70 um cell strainer followed by ammonium chloride red blood cell lysis. Cells were washed, resuspended in Splenocyte Medium (HyClone RPMI supplemented with 10% heat-inactivated FBS, 0.5× non-essential amino acids, 10 mM HEPES, 50 uM beta mercaptoethanol) and incubated at 37° C., 5% CO2 for 2 h to remove adherent cells. Suspension cells were seeded in 96 well plates at 50,000 cells per well and incubated at 37° C., 5% CO2 for 1 h. Splenocytes were pre-treated in triplicate with 10,000 nM curves of Formula 1 compounds for 1 h, followed by stimulation of B cell proliferation with 2.5 ug/ml anti-IgM F(ab′)2 (Jackson ImmunoResearch) for 72 h. Cell proliferation was measured by Cell Titer-Glo Luminescent Assay (Promega). EC50 values (50% proliferation in the presence of compound as compared to vehicle treated controls) were calculated from dose response compound curves using GraphPad Prism Software.

[2] = target: recombinant human full-length Bruton Agammaglobulinemia Tyrosine Kinase (Btk) (Homo sapiens (Human), UniProt Q06187); assay: Btk Kinase Inhibition Assay (fluorescence polarization); format: biochemical; settings: 10 μM ATP, 250 μM substrate, 60 minutes; Ki calculated from IC50 using the Cheng-Prusoff equation
Experimental: Kinase Binding Btk Kinase Inhibition Assay
Fluorescence polarization-based kinase assays were performed in 384 well-plate format using histidine tagged recombinant human full-length Bruton Agammaglobulinemia Tyrosine Kinase (Btk) and a modified protocol of the KinEASE™ FP Fluorescein Green Assay supplied from Millipore. Kinase reaction were performed at room temperature for 60 minutes in presence of 250 μM substrate, 10 μM ATP and variable test article concentrations. The reaction was stopped with EDTA/kinase detection reagents and the polarization measured on a Tecan 500 instrument. From the dose-response curve obtained, the IC50 was calculated using Graph Pad Prisms® using a non linear fit curve. The Km for ATP on each enzyme was experimentally determined and the Ki values calculated using the Cheng-Prusoff equation (see: Cheng Y, Prusoff W H. (1973) Relationship between the inhibition constant (K1) and the concentration of inhibitor which causes 50 percent inhibition (I50) of an enzymatic reaction”. Biochem Pharmacol 22 (23): 3099-108).

Chain of recombinant human full-length Bruton Agammaglobulinemia Tyrosine Kinase (Btk) (Q06187 whole entry): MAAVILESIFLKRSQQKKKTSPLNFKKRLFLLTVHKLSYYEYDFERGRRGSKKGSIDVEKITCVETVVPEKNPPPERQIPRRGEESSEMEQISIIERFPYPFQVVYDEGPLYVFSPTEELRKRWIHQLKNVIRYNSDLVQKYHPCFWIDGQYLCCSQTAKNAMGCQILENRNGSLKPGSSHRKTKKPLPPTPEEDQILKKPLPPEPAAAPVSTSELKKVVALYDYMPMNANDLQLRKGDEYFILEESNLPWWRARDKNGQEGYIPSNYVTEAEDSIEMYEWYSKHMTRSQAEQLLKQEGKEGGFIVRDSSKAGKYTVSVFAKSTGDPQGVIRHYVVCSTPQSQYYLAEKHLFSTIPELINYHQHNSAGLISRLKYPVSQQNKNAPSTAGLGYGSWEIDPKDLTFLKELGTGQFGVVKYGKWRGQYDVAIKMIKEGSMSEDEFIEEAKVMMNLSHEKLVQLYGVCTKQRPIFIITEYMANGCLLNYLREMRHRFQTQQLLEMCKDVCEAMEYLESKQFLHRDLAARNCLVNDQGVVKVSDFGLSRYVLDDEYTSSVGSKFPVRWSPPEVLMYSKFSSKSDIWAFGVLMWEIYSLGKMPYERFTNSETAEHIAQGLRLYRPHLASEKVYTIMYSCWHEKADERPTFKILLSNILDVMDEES

Row | Ki [2] [nM] | Structure (SMILES) | EC50 [1] [nM]
1 | < 100 | Nc1ncnc2c1c(-c1ccc(Oc3cccc(OCc4cncs4)c3)cc1)nn2CCc1ccncc1 [Compound 41] | 100 to 1000
2 | < 100 | CC(C)n1nc(-c2ccc(Oc3cc(F)cc(OCc4ccc(CO)nc4)c3)cc2)c2c(N)ncnc21 [Compound 128] | < 100
3 | < 100 | Nc1ncnc2c1c(-c1ccc(Oc3cc(F)cc(OCc4ccc(CO)nc4)c3)cc1)nn2C1CCOCC1 [Compound 101] | < 100
4 | < 100 | CC(C)n1nc(-c2ccc(Oc3cc(F)cc(OCc4cncn4C)c3)cc2F)c2c(N)ncnc21 [Compound 98] | < 100
5 | < 100 | Cc1ncc(COc2cc(F)cc(Oc3ccc(-c4nn(C(C)C)c5ncnc(N)c45)cc3)c2)n1C [Compound 123] | < 100
6 | < 100 | Nc1ncnc2c1c(-c1ccc(Oc3cccc(OCc4ccccc4C(F)(F)F)c3)cc1)nn2C1CCOCC1 [Compound 23] | < 100
7 | < 100 | Cc1ncc(COc2cccc(Oc3ccc(-c4nn(C)c5ncnc(N)c45)cc3)c2)s1 [Compound 18] | < 100
8 | < 100 | Cc1ncc(COc2cc(F)cc(Oc3ccc(-c4nn(C5CCCC5)c5ncnc(N)c45)cc3)c2)n1C [Compound 120] | < 100
9 | < 100 | Nc1ncnc2c1c(-c1ccc(Oc3cccc(OCc4ccccc4)c3)cc1)nn2[C@@H]1CCCNC1 [Compound 4] | 100 to 1000
10 | < 100 | CC(C)(C)OC(=O)N1CCC[C@@H](n2nc(-c3ccc(Oc4cccc(OCc5ccccc5)c4)cc3)c3c(N)ncnc32)C1 [Compound 3] | 100 to 1000
11 | < 100 | COCCn1cncc1COc1cc(F)cc(Oc2ccc(-c3nn(C4CCOCC4)c4ncnc(N)c34)cc2)c1 [Compound 83] | 100 to 1000
12 | < 100 | CCn1cncc1COc1cc(F)cc(Oc2ccc(-c3nn(C4CCOCC4)c4ncnc(N)c34)cc2)c1 [Compound 87] | < 100
13 | < 100 | Nc1ncnc2c1c(-c1ccc(Oc3cccc(COc4ccccc4C(F)(F)F)c3)cc1)nn2C1CCOCC1 [Compound 36] | < 100
14 | < 100 | Cn1cncc1COc1cc(F)cc(Oc2ccc(-c3nn(CC(C)(C)O)c4ncnc(N)c34)cc2)c1 [Compound 112] | 100 to 1000
15 | < 100 | Cc1ncc(COc2cc(F)cc(Oc3ccc(-c4nn(C5COC5)c5ncnc(N)c45)cc3)c2)s1 [Compound 113] | < 100
16 | < 100 | C=CC(=O)N1CCC[C@@H](n2nc(-c3ccc(Oc4cccc(OCc5ccccc5)c4)cc3)c3c(N)ncnc32)C1 [Compound 5] | < 100
17 | < 100 | Cc1ncc(COc2cc(F)cc(Oc3ccc(-c4nn(C5CCOCC5)c5ncnc(N)c45)c(F)c3)c2)s1 [Compound 60] | < 100
18 | < 100 | Nc1ncnc2c1c(-c1ccc(Oc3cccc(OCc4cncs4)c3)cc1)nn2CCCN1CCOCC1 [Compound 53] | < 100
19 | < 100 | Cc1ncc(COc2cc(F)cc(Oc3ccc(-c4nn(C(C)(C)C)c5ncnc(N)c45)cc3)c2)s1 [Compound 127] | < 100
20 | < 100 | Cc1ccc(COc2cc(F)cc(Oc3ccc(-c4nn(C5CCCC5)c5ncnc(N)c45)cc3)c2)cn1 [Compound 84] | < 100
21 | < 100 | CC(=O)N1CCC[C@@H](n2nc(-c3ccc(Oc4cccc(OCc5cncs5)c4)cc3)c3c(N)ncnc32)C1 [Compound 27] | < 100
22 | < 100 | Cn1nc(-c2ccc(Oc3cccc(OCc4cncs4)c3)cc2)c2c(N)ncnc21 [Compound 19] | 100 to 1000
23 | < 100 | Cc1ncc(COc2cc(F)cc(Oc3ccc(-c4nn(C(CO)CCl)c5ncnc(N)c45)cc3)c2)s1 (centres unmarked) [Compound 109] | < 100
24 | < 100 | Cc1ncc(COc2cc(F)cc(Oc3ccc(-c4nn(CCCO)c5ncnc(N)c45)cc3)c2)cn1 [Compound 114] | 100 to 1000
25 | < 100 | Nc1ncnc2c1c(-c1ccc(Oc3cc(F)cc(OCc4cnc[nH]4)c3)cc1)nn2C1CCOCC1 [Compound 93] | 100 to 1000
26 | < 100 | Cn1nc(-c2ccc(Oc3cccc(COc4ccccc4C(F)(F)F)c3)cc2)c2c(N)ncnc21 [Compound 31] | 100 to 1000

Row | Ki [2] [nM] | Structure (SMILES) | EC50 [1] [nM]
27 | < 100 | CC(C)Cn1cncc1COc1cc(F)cc(Oc2ccc(-c3nn(C4CCOCC4)c4ncnc(N)c34)cc2)c1 [Compound 74] | 100 to 1000
28 | < 100 | Cc1ncc(COc2cc(F)cc(Oc3ccc(-c4nn(CCO)c5ncnc(N)c45)cc3)c2)n1C [Compound 115] | 100 to 1000
29 | < 100 | N#Cc1ccccc1COc1cccc(Oc2ccc(-c3nn(C4CCCC4)c4ncnc(N)c34)cc2)c1 [Compound 12] | 100 to 1000
30 | < 100 | CC(=O)N1CCC[C@@H](n2nc(-c3ccc(Oc4cccc(OCc5ccccc5C(F)(F)F)c4)cc3)c3c(N)ncnc32)C1 [Compound 26] | < 100
31 | < 100 | N#Cc1ccccc1OCc1cccc(Oc2ccc(-c3nn(C4CCOCC4)c4ncnc(N)c34)cc2)c1 [Compound 22] | < 100
32 | < 100 | Nc1ncnc2c1c(-c1ccc(Oc3cccc(COc4ccccc4C(F)(F)F)c3)cc1)nn2C1CCCC1 [Compound 32] | < 100
33 | < 100 | Cc1ncc(COc2cc(F)cc(Oc3ccc(-c4nn(C5CCOCC5)c5ncnc(N)c45)cc3)c2)[nH]1 [Compound 118] | 100 to 1000
34 | < 100 | CC(=O)N1CCC(n2nc(-c3ccc(Oc4cccc(OCc5cncs5)c4)cc3)c3c(N)ncnc32)CC1 [Compound 47] | < 100
35 | < 100 | Cc1ncc(COc2cccc(Oc3ccc(-c4nn(C5CCOCC5)c5ncnc(N)c45)cc3)c2)s1 [Compound 38] | < 100
36 | < 100 | CC(=O)N1CCC[C@@H](n2nc(-c3ccc(Oc4cccc(COc5ccccc5C(F)(F)F)c4)cc3)c3c(N)ncnc32)C1 [Compound 33] | < 100
37 | < 100 | Cc1ncc(COc2cc(F)cc(Oc3ccc(-c4nn(CCO)c5ncnc(N)c45)cc3)c2)cn1 [Compound 110] | 100 to 1000
38 | < 100 | Nc1ncnc2c1c(-c1ccc(Oc3cccc(OCc4ccccc4)c3)cc1)nn2C1CCCC1 [Compound 2] | 100 to 1000
39 | < 100 | Cc1ncc(COc2cc(F)cc(Oc3ccc(-c4nn(C)c5ncnc(N)c45)cc3)c2)s1 [Compound 61] | 100 to 1000
40 | < 100 | Cn1cncc1COc1cc(F)cc(Oc2ccc(-c3nn(CCO)c4ncnc(N)c34)c(F)c2)c1 [Compound 105] | 100 to 1000
41 | < 100 | Cc1ncc(COc2cccc(Oc3ccc(-c4nn(C5CCCC5)c5ncnc(N)c45)cc3)c2)s1 [Compound 37] | < 100
42 | < 100 | CN1CCN(CCn2nc(-c3ccc(Oc4cccc(OCc5cncs5)c4)cc3)c3c(N)ncnc32)CC1 [Compound 40] | 100 to 1000
43 | < 100 | Cc1ncc(COc2cc(F)cc(Oc3ccc(-c4nn(CC5(C)COC5)c5ncnc(N)c45)cc3)c2)cn1 [Compound 119] | 100 to 1000
44 | < 100 | Cc1ccc(COc2cc(F)cc(Oc3ccc(-c4nn(C5CCOCC5)c5ncnc(N)c45)cc3)c2)c[n+]1[O-] [Compound 91] | < 100
45 | < 100 | Cc1ncc(COc2cc(F)cc(Oc3ccc(-c4nn(CC5(C)COC5)c5ncnc(N)c45)cc3)c2)n1C [Compound 124] | 100 to 1000
46 | < 100 | Cc1ncc(COc2cc(F)cc(Oc3ccc(-c4nn(CCCO)c5ncnc(N)c45)cc3)c2)s1 [Compound 104] | < 100
47 | < 100 | Nc1ncnc2c1c(-c1ccc(Oc3cc(F)cc(OCc4cnccn4)c3)cc1)nn2C1CCOCC1 [Compound 69] | < 100
48 | < 100 | COc1ccc(COc2cccc(Oc3ccc(-c4nn(C5CCCC5)c5ncnc(N)c45)cc3)c2)cc1 [Compound 11] | 100 to 1000
49 | < 100 | Nc1ncnc2c1c(-c1ccc(Oc3cc(F)cc(OCc4cncn4C4CCCC4)c3)cc1)nn2C1CCOCC1 [Compound 77] | < 100
50 | < 100 | CC(=O)N1CCC[C@@H](n2nc(-c3ccc(Oc4cccc(OCc5ccccc5C#N)c4)cc3)c3c(N)ncnc32)C1 [Compound 28] | < 100
51 | < 100 | Cc1ccc(COc2cc(F)cc(Oc3ccc(-c4nn(CC(C)(C)O)c5ncnc(N)c45)cc3)c2)cn1 [Compound 111] | 100 to 1000
52 | < 100 | Nc1ncnc2c1c(-c1ccc(Oc3cc(F)cc(CCc4cccnc4)c3)cc1)nn2C1CCOCC1 [Compound 80] | 100 to 1000
